Experimental data as given in ChEMBL document CHEMBL2375302, “Synthesis, antimicrobial, antiquorum-sensing, antitumor and cytotoxic activities of new series of fused [1,3,4]thiadiazoles” (Eur J Med Chem, 2013).

Columns and labels:
[1] = Toxicity against brine shrimp larvae assessed as mortality at 10 ug/mL after 24 hrs by binocular microscopic analysis relative to control; assay type: organism-based; conditions: artemia salina, in vivo
[2] = system: MDA-MB-468; assay: Growth inhibition of human MDA-MB-468 cells at 10 uM after 48 hrs by coulter counter analysis relative to control; assay type: functional; conditions: MDA-MB-468, 48 h, read-out: GI
[3] = system: T47D; assay: Growth inhibition of human T47D cells at 10 uM after 48 hrs by coulter counter analysis relative to control; assay type: functional; conditions: read-out: GI
[4] = system: PC-3; assay: Growth inhibition of human PC3 cells at 10 uM after 48 hrs by coulter counter analysis relative to control; assay type: functional; conditions: PC-3, 48 h, read-out: GI
[5] = system: UO-31; assay: Growth inhibition of human UO31 cells at 10 uM after 48 hrs by coulter counter analysis relative to control; assay type: functional; conditions: UO-31, 48 h, read-out: GI
[6] = system: SN12C; assay: Growth inhibition of human SN12C cells at 10 uM after 48 hrs by coulter counter analysis relative to control; assay type: functional; conditions: read-out: GI
[7] = system: ACHN; assay: Growth inhibition of human ACHN cells at 10 uM after 48 hrs by coulter counter analysis relative to control; assay type: functional; conditions: read-out: GI
[8] = system: CAKI-1; assay: Growth inhibition of human CAKI-1 cells at 10 uM after 48 hrs by coulter counter analysis relative to control; assay type: functional; conditions: CAKI-1, 48 h, read-out: GI
[9] = system: A498; assay: Growth inhibition of human A498 cells at 10 uM after 48 hrs by coulter counter analysis relative to control; assay type: functional; conditions: A498, 48 h, read-out: GI
[10] = system: 786-0; assay: Growth inhibition of human 786-0 cells at 10 uM after 48 hrs by coulter counter analysis relative to control; assay type: functional; conditions: 786-0, 48 h, read-out: GI
[11] = system: SK-OV-3; assay: Growth inhibition of human SKOV3 cells at 10 uM after 48 hrs by coulter counter analysis relative to control; assay type: functional; conditions: SK-OV-3, 48 h, read-out: GI
[12] = Growth inhibition of human NCI-ADR-RES cells at 10 uM after 48 hrs by coulter counter analysis relative to control; assay type: functional; conditions: read-out: GI
[13] = system: OVCAR-8; assay: Growth inhibition of human OVCAR8 cells at 10 uM after 48 hrs by coulter counter analysis relative to control; assay type: functional; conditions: OVCAR-8, 48 h, read-out: GI
[14] = system: OVCAR-5; assay: Growth inhibition of human OVCAR5 cells at 10 uM after 48 hrs by coulter counter analysis relative to control; assay type: functional; conditions: OVCAR-5, 48 h, read-out: GI
[15] = system: SK-MEL-2; assay: Growth inhibition of human SK-MEL-2 cells at 10 uM after 48 hrs by coulter counter analysis relative to control; assay type: functional; conditions: SK-MEL-2, 48 h, read-out: GI
[16] = system: MDA-MB-435; assay: Growth inhibition of human MDA-MB-435 cells at 10 uM after 48 hrs by coulter counter analysis relative to control; assay type: functional; conditions: MDA-MB-435, 48 h, read-out: GI
[17] = system: LOX IMVI; assay: Growth inhibition of human LOXIMVI cells at 10 uM after 48 hrs by coulter counter analysis relative to control; assay type: functional; conditions: read-out: GI
[18] = system: SNB-75; assay: Growth inhibition of human SNB75 cells at 10 uM after 48 hrs by coulter counter analysis relative to control; assay type: functional; conditions: SNB-75, 48 h, read-out: GI
[19] = system: SF-268; assay: Growth inhibition of human SF268 cells at 10 uM after 48 hrs by coulter counter analysis relative to control; assay type: functional; conditions: SF-268, 48 h, read-out: GI
[20] = system: KM12; assay: Growth inhibition of human KM12 cells at 10 uM after 48 hrs by coulter counter analysis relative to control; assay type: functional; conditions: KM12, 48 h, read-out: GI
[21] = system: SW-620; assay: Growth inhibition of human SW620 cells at 10 uM after 48 hrs by coulter counter analysis relative to control; assay type: functional; conditions: SW-620, 48 h, read-out: GI
[22] = system: HCT-15; assay: Growth inhibition of human HCT15 cells at 10 uM after 48 hrs by coulter counter analysis relative to control; assay type: functional; conditions: HCT-15, 48 h, read-out: GI
[23] = system: COLO 205; assay: Growth inhibition of human COLO205 cells at 10 uM after 48 hrs by coulter counter analysis relative to control; assay type: functional; conditions: COLO 205, 48 h, read-out: GI
[24] = system: HOP-62; assay: Growth inhibition of human HOP62 cells at 10 uM after 48 hrs by coulter counter analysis relative to control; assay type: functional; conditions: HOP-62, 48 h, read-out: GI
[25] = system: A549; assay: Growth inhibition of human A549 cells at 10 uM after 48 hrs by coulter counter analysis relative to control; assay type: functional; conditions: A549, 48 h, read-out: GI
[26] = system: RPMI-8226; assay: Growth inhibition of human RPMI8226 cells at 10 uM after 48 hrs by coulter counter analysis relative to control; assay type: functional; conditions: RPMI-8226, 48 h, read-out: GI
[27] = system: K562; assay: Growth inhibition of human K562 cells at 10 uM after 48 hrs by coulter counter analysis relative to control; assay type: functional; conditions: K562, 48 h, read-out: GI
[28] = system: Chromobacterium violaceum; assay: Antiquorum-sensing activity against Chromobacterium violaceum ATCC 12472 after 48 hrs; assay type: functional
[29] = system: Aspergillus flavus; assay: Antifungal activity against Aspergillus flavus 3372 at 5 mg/mL after 48 hrs; assay type: functional; conditions: Aspergillus flavus, 3372, 48 h; read-out: DIZ
[30] = system: Bacillus cereus; assay: Antibacterial activity against Bacillus cereus at 5 mg/mL after 24 hrs; assay type: functional; conditions: read-out: DIZ
[31] = system: Escherichia coli; assay: Antibacterial activity against Escherichia coli at 5 mg/mL after 24 hrs; assay type: functional; conditions: read-out: DIZ

Compound: CCOC(=O)C1C(=O)N=C2SC(S(N)(=O)=O)=NN2C1c1ccc(N(C)C)cc1 (stereo not drawn)
- mortality at 24 h, 10 ug/mL [1]: 66.6%
- inhibition of growth at 10 µM [2]: < 10%
- inhibition of growth at 10 µM [3]: < 10%
- inhibition of growth at 10 µM [4]: 11.4%
- inhibition of growth at 10 µM [5]: 14.7%
- inhibition of growth at 10 µM [6]: < 10%
- inhibition of growth at 10 µM [7]: < 10%
- inhibition of growth at 10 µM [8]: 21.1%
- inhibition of growth at 10 µM [9]: 16.5%
- inhibition of growth at 10 µM [10]: < 10%
- inhibition of growth at 10 µM [11]: < 10%
- inhibition of growth at 10 µM [12]: < 10%
- inhibition of growth at 10 µM [13]: < 10%
- inhibition of growth at 10 µM [14]: < 10%
- inhibition of growth at 10 µM [15]: < 10%
- inhibition of growth at 10 µM [16]: 21.3%
- inhibition of growth at 10 µM [17]: 11.7%
- inhibition of growth at 10 µM [18]: 10.1%
- inhibition of growth at 10 µM [19]: < 10%
- inhibition of growth at 10 µM [20]: < 10%
- inhibition of growth at 10 µM [21]: < 10%
- inhibition of growth at 10 µM [22]: < 10%
- inhibition of growth at 10 µM [23]: < 10%
- inhibition of growth at 10 µM [24]: < 10%
- inhibition of growth at 10 µM [25]: < 10%
- inhibition of growth at 10 µM [26]: < 10%
- inhibition of growth at 10 µM [27]: < 10%
- diameter of the inhibition zone (DIZ) [28]: <2 mm
- zone of inhibition at 5000 µg/mL [29]: < 2 mm
- zone of inhibition at 5000 µg/mL [30]: 5 mm
- zone of inhibition at 5000 µg/mL [31]: < 2 mm

Compound: N#Cc1cnc2sc(S(N)(=O)=O)nn2c1=O
- mortality at 24 h, 10 ug/mL [1]: 50%
- inhibition of growth at 10 µM [2]: < 10%
- inhibition of growth at 10 µM [3]: < 10%
- inhibition of growth at 10 µM [4]: < 10%
- inhibition of growth at 10 µM [5]: 10.5%
- inhibition of growth at 10 µM [6]: < 10%
- inhibition of growth at 10 µM [7]: < 10%
- inhibition of growth at 10 µM [8]: < 10%
- inhibition of growth at 10 µM [9]: 34.2%
- inhibition of growth at 10 µM [10]: < 10%
- inhibition of growth at 10 µM [11]: < 10%
- inhibition of growth at 10 µM [12]: < 10%
- inhibition of growth at 10 µM [13]: < 10%
- inhibition of growth at 10 µM [14]: < 10%
- inhibition of growth at 10 µM [15]: < 10%
- inhibition of growth at 10 µM [16]: < 10%
- inhibition of growth at 10 µM [17]: 10.7%
- inhibition of growth at 10 µM [18]: 10.3%
- inhibition of growth at 10 µM [19]: < 10%
- inhibition of growth at 10 µM [20]: < 10%
- inhibition of growth at 10 µM [21]: < 10%
- inhibition of growth at 10 µM [22]: < 10%
- inhibition of growth at 10 µM [23]: < 10%
- inhibition of growth at 10 µM [24]: < 10%
- inhibition of growth at 10 µM [25]: < 10%
- inhibition of growth at 10 µM [26]: < 10%
- inhibition of growth at 10 µM [27]: < 10%
- diameter of the inhibition zone (DIZ) [28]: 10 mm
- zone of inhibition at 5000 µg/mL [29]: < 2 mm
- zone of inhibition at 5000 µg/mL [30]: 2 mm
- zone of inhibition at 5000 µg/mL [31]: 5 mm

Compound: N#Cc1cnc2sc(S(N)(=O)=O)nn2c1=N
- mortality at 24 h, 10 ug/mL [1]: 73.3%
- inhibition of growth at 10 µM [2]: < 10%
- inhibition of growth at 10 µM [3]: < 10%
- inhibition of growth at 10 µM [4]: < 10%
- inhibition of growth at 10 µM [5]: < 10%
- inhibition of growth at 10 µM [6]: < 10%
- inhibition of growth at 10 µM [7]: < 10%
- inhibition of growth at 10 µM [8]: 11.5%
- inhibition of growth at 10 µM [9]: 14.9%
- inhibition of growth at 10 µM [10]: < 10%
- inhibition of growth at 10 µM [11]: < 10%
- inhibition of growth at 10 µM [12]: < 10%
- inhibition of growth at 10 µM [13]: < 10%
- inhibition of growth at 10 µM [14]: < 10%
- inhibition of growth at 10 µM [15]: < 10%
- inhibition of growth at 10 µM [16]: < 10%
- inhibition of growth at 10 µM [17]: 15.1%
- inhibition of growth at 10 µM [18]: < 10%
- inhibition of growth at 10 µM [19]: < 10%
- inhibition of growth at 10 µM [20]: < 10%
- inhibition of growth at 10 µM [21]: < 10%
- inhibition of growth at 10 µM [22]: < 10%
- inhibition of growth at 10 µM [23]: < 10%
- inhibition of growth at 10 µM [24]: 10.7%
- inhibition of growth at 10 µM [25]: < 10%
- inhibition of growth at 10 µM [26]: < 10%
- inhibition of growth at 10 µM [27]: < 10%
- diameter of the inhibition zone (DIZ) [28]: 11 mm
- zone of inhibition at 5000 µg/mL [29]: < 2 mm
- zone of inhibition at 5000 µg/mL [30]: < 2 mm
- zone of inhibition at 5000 µg/mL [31]: < 2 mm
